Consider 36 substances from patent publication US20230190924A1, “ANTIGEN OF ALLERGY AND EPITOPE THEREOF” (HOYU CO., LTD., priority 2017, published 2023).

The first experiment has as its system IgE antibodies from patients. Put plainly: Epitope mapping (2) overlapping (10-amino-acid peptides) and (3) alanine scanning on peptide arrays. Type of experiment: binding, human. The following applies: overlapping peptides with flanking sequence. Here is the method:
On the basis of the sequences (SEQ ID NOs: 272-295 for vitellogenin-2 precursor, SEQ ID NOs: 296-303 for vitellogenin-3, SEQ ID NOs: 304-311 for apolipoprotein B precursor, and SEQ ID NOs: 312-318 for vitellogenin-1 or lipovitellin-1) of the peptides bound to an IgE antibody in serum in a patient-specific manner as described above in (A), a library of overlapping peptide fragments (length: 10 amino acids) was prepared using the sequences of the peptides and sequences in which sequences were added so as to flank each peptide in the amino acid sequences of allergen components (amino acid sequences of SEQ ID NO: 59, 106 or 262 for vitellogenin-2 precursor, SEQ ID NO: 2, 13 or 47 for vitellogenin-3, SEQ ID NO: 152, 237 or 251 for apolipoprotein B, and SEQ ID NO: 18 for vitellogenin-1 or lipovitellin-1) comprising the sequences of the peptide to carry out epitope mapping.
The peptides to be synthesized were shifted by one amino acid.
The library was prepared by the same procedure as described above in (A), and the presence or absence of binding of an IgE antibody present in the serum of a patient and a non-egg-allergic subject to each peptide fragment was measured by the same technique as described above. Amino acids at positions where the binding activity against IgE antibodies from patients were lost or decreased in the peptides shifted by one amino acid while binding activity against IgE antibodies from non-egg-allergic subjects arose were confirmed as amino acids adversely affecting the specificity of binding to IgE antibodies.
Chemiluminescence intensity in images obtained by measurement was converted into a numeric value in the same manner as in (A) using ImageQuant TL (GE Healthcare). Numeric values determined from images obtained as a result of using only anti-human IgE antibody-HRP antibody without carrying out the procedures (2) and (3) described above in the subsection titled (3) Spotting of cellulose-bound peptide solution were […] numeric values determined from images obtained from results about the serum of 6 patients. It was determined that a peptide having the resulting value larger than 0 had no binding activity against IgE antibodies when having less than 20% of values obtained using the sequences (amino acid sequences of SEQ ID NO: 59, 106 or 262 for vitellogenin-2, SEQ ID NO: 2, 13 or 47 for vitellogenin-3, SEQ ID NO: 152, 237 or 251 for apolipoprotein B, and SEQ ID NO: 18 for vitellogenin-1 or lipovitellin-1) serving as the basis of overlapping, had binding activity, albeit poor, against IgE antibodies when having 20% or more and less than 50% thereof, had binding activity, albeit somewhat poor, against IgE antibodies when having 50% or more and less than 70% thereof, had almost equivalent binding activity against IgE antibodies when having 70% or more and less than 90% thereof, and had equivalent or good binding activity against IgE antibodies and thus had remaining binding activity against IgE antibodies when having 90% or more thereof.
From the amino acid sequences identified above in (A), a library of peptide fragments in which N-terminal amino acids were substituted one by one by alanine according to a technique called alanine scanning (Non Patent Literature 1) was prepared by the same technique as described above. The presence or absence of binding of an IgE antibody present in the serum of a patient and a non-egg-allergic subject to each peptide fragment was measured by the same technique as described above. Amino acids at positions where the binding activity against IgE antibodies from patients were lost or decreased by the substitution by alanine while binding activity against IgE antibodies from non-egg-allergic subjects arose were confirmed as amino acids important for exertion of original antigenicity, or amino acids influencing exertion of original antigenicity.
For “SEQ ID NO: 476: sequence comprising a region carboxy-terminally adjacent to epitope 20 (AINIKIGSHE; epitope)”, the “binding to IgE antibodies from patients, sequence comprising a region carboxy-terminally adjacent to the epitope” value is recorded as “binding to IgE antibodies from patients”.
“SEQ ID NO: 479: sequence comprising a region amino-terminally adjacent to epitope 20 (KSAGEATNLK; epitope)”: the “binding to IgE antibodies from patients, sequence comprising a region amino-terminally adjacent to the epitope” value was “binding to IgE antibodies from patients”.
Take “SEQ ID NO: 480: sequence comprising a region amino-terminally adjacent to epitope 20 (AGEATNLKAI; epitope)”: the “binding to IgE antibodies from patients, sequence comprising a region amino-terminally adjacent to the epitope” value was “binding to IgE antibodies from patients”.
Consider “SEQ ID NO: 487: sequence comprising a region carboxy-terminally adjacent to epitope 20 (NIKIGSHEI; epitope)”, for which the “binding to IgE antibodies from patients, sequence comprising a region carboxy-terminally adjacent to the epitope” value is given as “binding to IgE antibodies from patients”.
On to “SEQ ID NO: 492: sequence comprising a region amino-terminally adjacent to epitope 21 (LAAPGHG; epitope)”, for which the “binding to IgE antibodies from patients, sequence comprising a region amino-terminally adjacent to the epitope” value is on record as “binding to IgE antibodies from patients”.
On to “SEQ ID NO: 495: sequence comprising a region carboxy-terminally adjacent to epitope 21 (YFDGKTITIQ; epitope)”, for which the “binding to IgE antibodies from patients, sequence comprising a region carboxy-terminally adjacent to the epitope” value is “binding to IgE antibodies from patients”.
With “SEQ ID NO: 497: sequence comprising a region amino-terminally adjacent to epitope 21 (GFALAAPGHG; epitope)”, the “binding to IgE antibodies from patients, sequence comprising a region amino-terminally adjacent to the epitope” value was “binding to IgE antibodies from patients”.
Consider “SEQ ID NO: 498: sequence comprising a region amino-terminally adjacent to epitope 21 (ALAAPGHGID; epitope)”, for which the “binding to IgE antibodies from patients, sequence comprising a region amino-terminally adjacent to the epitope” value was “binding to IgE antibodies from patients”.
Same read-out and setting: with “SEQ ID NO: 503: sequence comprising a region amino-terminally adjacent to epitope 21 (GFALAAPGHG; epitope)” the entry was “binding to IgE antibodies from patients”.
As for “SEQ ID NO: 515: sequence comprising a region carboxy-terminally adjacent to epitope 22 (GYLAKNAVSF; epitope)”, the “binding to IgE antibodies from patients, sequence comprising a region carboxy-terminally adjacent to the epitope” value is “binding to IgE antibodies from patients”.
Consider “SEQ ID NO: 516: sequence comprising a region amino-terminally adjacent to epitope 23 (PCRGACKLH; epitope)”, for which the “binding to IgE antibodies from patients, sequence comprising a region amino-terminally adjacent to the epitope” value is listed as “binding to IgE antibodies from patients”.
As for “SEQ ID NO: 517: sequence comprising a region amino-terminally adjacent to epitope 23 (APCRGACKLH; epitope)”, the “binding to IgE antibodies from patients, sequence comprising a region amino-terminally adjacent to the epitope” value was “binding to IgE antibodies from patients”.
Regarding “SEQ ID NO: 523: sequence comprising a region carboxy-terminally adjacent to epitope 23 (FVKLEKTVQL; epitope)”, the “binding to IgE antibodies from patients, sequence comprising a region carboxy-terminally adjacent to the epitope” value was “binding to IgE antibodies from patients”.
On the same count and under the same terms, the result for “SEQ ID NO: 535: sequence comprising a region carboxy-terminally adjacent to epitope 27 (YDAEKKREY; epitope)” reads “binding to IgE antibodies from patients”.
In the case of “SEQ ID NO: 542: sequence comprising a region carboxy-terminally adjacent to epitope 27 (YDAEKKRE; epitope)”, the “binding to IgE antibodies from patients, sequence comprising a region carboxy-terminally adjacent to the epitope” value was “binding to IgE antibodies from patients”.
Regarding “SEQ ID NO: 550: sequence comprising a region amino-terminally adjacent to epitope 30 (EDTCTGACK; epitope)”, the “binding to IgE antibodies from patients, sequence comprising a region amino-terminally adjacent to the epitope” value is listed as “binding to IgE antibodies from patients”.
Take “SEQ ID NO: 551: sequence comprising a region carboxy-terminally adjacent to epitope 30 (QRKFVKIE; epitope)”: the “binding to IgE antibodies from patients, sequence comprising a region carboxy-terminally adjacent to the epitope” value was “binding to IgE antibodies from patients”.

The experiment is the same for the next values; noted with them: procedures (B) overlapping and (C) alanine scanning.
On to “SEQ ID NO: 482: region in epitope 20 (ATNLKAINI; epitope)”, for which the “region within the epitope important for binding to IgE antibodies from patients” value (from here on “region within the epitope important”) is “important for binding”.
“SEQ ID NO: 483: region in epitope 20 (ATNLKAINIK; epitope)”: the “region within the epitope important” value is “important for binding”.
With “SEQ ID NO: 486: region in epitope 20 (KAINIKIGS; epitope)”, the “region within the epitope important” value is “important for binding”.
The same measure, in the same setting: with “SEQ ID NO: 491: region in epitope 21 (AAPGHG; epitope)” the entry was “important for binding”; with “SEQ ID NO: 494: region in epitope 21 (DKLYFD; epitope)”, “important for binding”.
Same read-out and setting: with “SEQ ID NO: 500: region in epitope 21 (DKLYFDG; epitope)” the entry was “important for binding”.
With “SEQ ID NO: 505: region in epitope 21 (AAPGHGID; epitope)”, the “region within the epitope important” value is given as “important for binding”.
As for “SEQ ID NO: 507: region in epitope 21 (PGHGIDKLYF; epitope)”, the “region within the epitope important” value was “important for binding”.
On the same count and under the same terms, with “SEQ ID NO: 509: region in epitope 21 (DKLYFDGKT; epitope)” the entry was “important for binding”.
Still for that read-out and setting: the result for “SEQ ID NO: 512: region in epitope 22 (MPNGYLAKNA; epitope)” reads “important for binding”.
On to “SEQ ID NO: 520: region in epitope 23 (ACKLHRSFVK; epitope)”, for which the “region within the epitope important” value was “important for binding”.
As for “SEQ ID NO: 522: region in epitope 23 (RSFVKLE; epitope)”, the “region within the epitope important” value is “important for binding”.
With “SEQ ID NO: 528: region in epitope 26 (GLLIS; epitope)”, the “region within the epitope important” value is listed as “important for binding”.
On to “SEQ ID NO: 531: region in epitope 26 (GLLIS; epitope)”, for which the “region within the epitope important” value was “important for binding”.
On to “SEQ ID NO: 533: region in epitope 27 (ICGKYDAE; epitope)”, for which the “region within the epitope important” value is “important for binding”.
Turning to “SEQ ID NO: 534: region in epitope 27 (GICGKYDAE; epitope)”, the “region within the epitope important” value is listed as “important for binding”.
On to “SEQ ID NO: 539: region in epitope 27 (CGICGKYDA; epitope)”, for which the “region within the epitope important” value is “important for binding”.
Same read-out and setting: the result for “SEQ ID NO: 541: region in epitope 27 (ICGKYDAEKK; epitope)” reads “important for binding”; that for “SEQ ID NO: 544: region in epitope 27 (YDAEKK; epitope)”, “important for binding”.
